Data on 90 compounds can be found in a melting point compilation (Tetko et al.; mined from patent text by program, amines drawn as free bases though some values may be those of a salt).

Usually melting point stands for the temperature, or range, at which the solid turns liquid.

Compound `O=C(c1cccnc1)c1ccc(Cl)c([N+](=O)[O-])c1` returned a melting point of 112 to 113 °C. Regarding `O=C(C1CCN(c2ccncc2)CC1)N1CCN(S(=O)(=O)c2ccc(-c3ccccn3)cc2)CC1`, the melting point lay in the range of 224 to 226 °C. The figure for `CCCCN(C)Cc1c(-c2ccccc2)sc(N)c1C(=O)c1ccc(Cl)cc1` is 84 to 88 °C; for `O=C(Cc1ccc(F)cc1)N1C(=O)OC[C@@H]1Cc1ccccc1` it is 64 to 66 °C; for `O=C(O)c1ccccc1Oc1ccc(C(F)(F)F)cc1NS(=O)(=O)c1ccc(F)cc1` it is 159 to 160 °C. Regarding `Cn1ccc2c3c(c(C(=O)O)cc21)C(=O)NC3=O`, the melting point lay in the range of 313 to 318 °C. As for `O=C(Nc1ccc(-c2cnc(-c3ccc(NC(=O)C45CC6CC(CC(C6)C4)C5)cc3)[nH]2)cc1)c1cccnc1`, the melting point was 251 to 252 °C. Then `Cc1cc(C(O)(c2ccccc2)c2ccccc2)on1`, with 116 to 118 °C; and `CC(C)c1ccc(C(=O)NC(C)c2ccc(Br)s2)cc1` (stereo not given), with 108 °C.

Take `O=Cc1c2ccccc2c(SCCO)c2ccccc12`: the melting point lay in the range of 103 to 104 °C. `NC1(C(=O)O)CC(OC(=O)Nc2ccccc2F)C2C(C(=O)O)C21` (stereo not given) gave a melting point of 232 to 233 °C. Compound `CC(C)Nc1cccnc1N1CCN(C(=O)c2ccc(C(=O)N3CCN(CCO)CC3)cc2)CC1` showed a melting point of 148 to 149 °C.

With `COc1cc2c(-c3cc4cc(F)cnc4[nH]3)cn(C)c2cc1OC`, the melting point stood at 283 °C. Consider `NCCN1CCN(c2ncc3ncnc(Nc4ccc(F)c(Cl)c4)c3n2)CC1`, for which the melting point fell in the range of 175 to 180 °C. With `CN1Cc2c(C(=O)NN)ncn2-c2cccc(Cl)c2C1=O`, the melting point came out at 287 °C. The figure for `CN(C)CCC1CCc2cc(OCc3ccc(O)cc3)ccc2C1` (stereo not given) is 132 to 135 °C; for `O=C1Nc2cc(NC(=O)c3c[nH]cc(-c4cccc(Cl)c4)c3=O)ccc2/C1=C/c1ccc[nH]1` it is greater than 300 °C. `O=C(O)CNC(=O)C(CS)Cc1ccc2c(c1)OCO2` (racemic) gave a melting point of 94 °C. The compound `COc1ccc(COCc2nc(C(C)C)c(I)[nH]2)cc1` yielded a melting point of 78 to 79 °C. As for `CCCCCn1ncc2c(N)c3c(nc21)CCNC3=O`, the melting point is 161 to 162 °C. Then `CC(=O)Nc1ccc(C(=O)CBr)cc1`, with 192 °C; and `C#Cc1ccc2c(c1)C(Cc1ccnc(F)c1)(Cc1ccnc(F)c1)c1cccnc1-2`, with 139 to 140 °C.

Regarding `COCCOCc1ccc(-c2ccc(C(=O)Nc3ccc(OC)c(N4CCN(C)CC4)c3)cc2)c(C)c1`, the melting point lay in the range of 147 to 148 °C. The figure for `CCSCCCCCSCCCCC(=O)O` is 49.5 to 50 °C; for `CCNC(=NS(=O)(=O)c1cccc(Cl)c1)N1CC(C)(C)C=N1` it is 62 to 67 °C. As for `CCOc1ccccc1Nc1ncc(C(=O)O)c(=O)[nH]1`, the melting point was in the range of 226 to 228 °C. With `O=C(CCN1CCC(C(O)(c2ccc(F)cc2)c2ccc(F)cc2)CC1)Nc1ccccc1`, the melting point fell in the range of 190 to 192 °C. As to `Cn1cc(C(=O)O)c(=O)c2cc(F)c(N3CCCN(c4ncccn4)CC3)c(C(F)(F)F)c21`, the melting point was in the range of 243 to 245 °C. As for `COc1cccc2c(Nc3ccc(C(=O)NC4CCN(Cc5ccccc5)CC4)cc3)c(C(N)=O)cnc12`, the melting point was in the range of 154 to 162 °C.

`CCCCSc1c[nH]nc1C1CN2CCC1CC2` (stereo not given) registered a melting point of 162 to 164 °C. Consider `CCNC(=S)NC1CCC(=O)c2ccccc21` (stereo not given), for which the melting point was 134 to 138 °C. Compound `COC(=O)COc1ccc(OC)cc1NC(=O)c1ccc(OCCCCc2ccccc2)cc1` displayed a melting point of 91 to 93 °C.

The compound `OCC1C=CC(n2cnc3cc(Cl)c(Cl)cc32)C1` (stereo not given) yielded a melting point of 166 to 169 °C.

In turn, `Cc1ccc2c(-n3ccnc3)c(F)ccc2n1` had a melting point of 159 to 161 °C.

For `N#Cc1ccc(CBr)c(C#N)c1`, the melting point came out at 106 °C.

As for `CCC(=S)N1CCSC1=Nc1ccccc1C(C)C`, the melting point is 79 to 81 °C. `CCCCN(CCCC)C(=O)CC1C(=O)N(c2ccc(Cl)cc2)C(=O)N1c1ccc(Cl)cc1` (stereo not given) had a melting point of 124 °C. For the compound `CCCC(C=NNC(C)=O)c1ccc(Cl)cc1Cl` (stereo not given), the melting point was 145 to 147 °C. With `CC1CCn2c(c(-c3ccccc3)c3cccnc3c2=O)C(=O)N(Cc2cc(C(F)(F)F)cc(C(F)(F)F)c2)C1` (racemic), the melting point lay in the range of 257 to 258 °C.

Regarding `CC(=O)c1sccc1S(=O)(=O)N(C)c1cccc2cc(-c3nccs3)[nH]c12`, the melting point turned out to be 156 °C. Consider `CC1(C)CC(=O)C(=C(O)COc2ccc(Cl)cc2Cl)C(=O)C1`, for which the melting point fell in the range of 170 to 175 °C. Compound `CCCCCCCCCCCCCCNC(=O)c1cnccn1` yielded a melting point of 80 to 81 °C.

As to `CCOC(=O)c1cnc2c(F)c(F)ccc2c1`, the melting point amounted to 118 °C.

As for `COc1ccc(Br)cc1S(=O)(=O)NCCCl`, the melting point is 150 °C. Compound `CC(C)c1cc(C(=O)C=CC(=O)N2CCN(C)CC2)ccc1OCC(=O)Nc1nc2ccccc2s1` returned a melting point of 114 to 115 °C. In turn, `CN1C(=O)O[C@@H](c2ccc(F)cc2)[C@H]1Cc1ccc(C(F)(F)F)cc1` (racemic) showed a melting point of 77 to 78 °C. Compound `Cc1nn(-c2ccc(F)cc2)cc1C(=O)O` yielded a melting point of 194 to 195 °C. As for `FC(F)(F)c1nc(Cl)sc1C(=S)OCc1ccccc1`, the melting point was 61 to 63 °C. `COc1ccc(-c2[nH]nc3c2C(=O)c2c(NC(=O)Cc4ccccc4OC)cccc2-3)cc1` displayed a melting point of 255 °C. Regarding `Cc1cn(Nc2ccncn2)c2ccccc12`, the melting point lay within 121 to 123 °C. The figure for `Cc1cc([N+](=O)[O-])c(Cl)nc1C` is 72 to 76 °C; for `Nc1cccc(-c2ccc(CCN3CC4C(C3)C4NC(=O)Cc3ccc(F)cc3)cc2)n1` (stereo not given) it is 161 to 163 °C. For the compound `COc1ccc2c(c1)C(=O)N(c1ccc3ncsc3c1)C2`, the melting point was in the range of 204 to 207 °C. Then `CCOCc1nc2c(N)nc3ccccc3c2n1CC1(O)CCC1`, with 174 to 175 °C; and `Cc1oc(-c2ccccc2)nc1COc1cccc(CSc2cccc(CC(=O)O)c2)c1`, with 81 to 82 °C. Compound `N#CC(C#N)=Cc1ccccc1F` yielded a melting point of 117 to 118 °C.

The compound `COC(=O)CN(C)C(=S)c1cccc2c(Br)cccc12` returned a melting point of 85 to 86 °C. As for `O=C(NCc1ccccn1)c1ccc2cnccc2n1`, the melting point was 123 to 125 °C.

`COC(=O)C1C(C)CC2C3CCC4CC(O)CCC4(C)C3C(=O)CC21C` (stereo not given) returned a melting point of 173 to 174 °C.

With `CCOCc1nc2c(N)nc3cc(OCCCCCCNC(=S)NC(C)C)ccc3c2n1CC(C)(C)NC(C)=O`, the melting point is 110 to 120 °C.

On to `CN(C)c1ccc2c(c1)C(=O)CC(c1ccc(OCc3ccccc3)cc1)=N2`, for which the melting point lay in the range of 283 to 285 °C. For `Nc1ccc(S(=O)c2ccc(-c3ccc(Br)cc3)cc2)cc1[N+](=O)[O-]` (stereo not given), the melting point was 218 to 220 °C. Turning to `COc1cc(COc2nn(Cc3ccccc3)cc2C(N)=O)ccc1OCc1nc(-c2ccco2)oc1C`, the melting point lay within 160 to 161 °C. Regarding `Cc1ccc(S(=O)(=O)N(C)c2ccc(Br)cc2[N+](=O)[O-])cc1`, the melting point lay within 82.5 to 83.5 °C. `CN(C)c1nc(-c2cccc3ccccc23)co1` gave a melting point of 30 to 32 °C. The compound `O=C1N(C/C=C/C=C/c2ccccc2Cl)CCN1c1cccnc1` registered a melting point of 130 to 133 °C. `O=c1ncc(Cl)cn1CSCc1ccccc1` showed a melting point of 186 °C. Turning to `CS(=O)(=O)Nc1cc2occ(S(C)(=O)=O)c(=O)c2cc1Oc1ccccc1`, the melting point was greater than 250 °C. The figure for `COC(=O)CS(=O)(=O)CCCCCn1nc(-c2ccccc2)c(-c2ccccc2)c1-c1ccccc1` is 102 °C; for `CCOc1ccc(-c2ccc3c(c2)C=C(C(=O)Nc2ccc(CCl)cc2)CCO3)cc1` it is 187 to 189 °C; for `Cc1c(-c2cccc(O)c2)sc(C#N)c1-c1ccc(O)cc1` it is 240 to 241 °C. On to `O=C1COc2cc(NC(=O)C(=O)N3CCC(Oc4ccccc4)CC3)ccc2N1`, for which the melting point lay within 196 to 199 °C.

With `COc1ccc(S(=O)(=O)n2cc(F)c(N)nc2=O)cc1`, the melting point was 158 to 162 °C. The figure for `CC1CCC2C3CCC4CC(O)CCC4(C)C3C(N(C)C)CC12C` (stereo not given) is 150 to 156 °C; for `Cc1cccc2ncc(C(=O)NCC(C)(C)C)c(=O)n12` it is 191 to 194 °C; for `CCOC(c1ccc(C=NO)cc1)(c1ccc2[nH]c(=O)cc(-c3cccc(Cl)c3)c2c1)c1cncn1C` (stereo not given) it is 232 °C. The compound `Cc1cc(CCCOc2c(C)cc(C(=N)NO)cc2C)on1` yielded a melting point of 129 to 130 °C. On to `C1=C(c2cccnc2)CCC(N2CCN(c3ccccn3)CC2)C1` (stereo not given), for which the melting point was in the range of 146 to 148 °C.

Compound `COc1cc(C)nc2c(OC)cc(Br)cc12` returned a melting point of 167 to 168 °C.

For the compound `CC(CS)C(=O)N1C(=O)CC[C@H]1C(=O)O` (stereo not given in full), the melting point fell in the range of 101 to 108 °C. Turning to `Cc1nc(-n2cccc(C(F)(F)F)c2=O)sc1C(=O)NCc1ccccc1`, the melting point is 203 to 204 °C.

`CN1CCN(c2ccc3nnn(Cc4ccc5ncccc5c4)c3n2)CC1`: the melting point fell in the range of 131 to 133 °C. The compound `CCCCC[C@H]1CC[C@H](c2ccc(CC(=O)OCc3ccc(C#N)cc3)cc2)CC1` returned a melting point of 85 °C. As for `Oc1ccc(-c2c3ccccc3c(Br)c3sc4ccccc4c23)cc1O`, the melting point lay in the range of 181 to 182 °C. For the compound `CCOC(=O)C1=C(C)Nc2nccn2C1C` (stereo not given), the melting point lay in the range of 185 to 186 °C. Regarding `COc1ccc(C(=O)O)c2c1OCCO2`, the melting point is 224 to 226 °C. The figure for `Cc1ccccc1Nc1nc(N(C)c2ccccc2)c2cccc(O)c2n1` is 174 to 175 °C. Consider `N#Cc1cc(-c2ccoc2)c2ccc(COc3cc(F)cc(-c4cccs4)c3)cc2n1`, for which the melting point was 181 to 183 °C. The compound `CCOC(=O)C1=C(COCC(C)(O)Cn2cnnc2)NC(C)=C(C(=O)OC)C1c1cccc(Cl)c1Cl` (stereo not given) returned a melting point of 172 to 176 °C.

`Cc1cc(C2=NNC(=O)Cc3cc4c(cc32)OCO4)ccc1N` displayed a melting point of 164 to 166 °C.
